Laboratory results reported in patent US20180051301A1, “INDUCTION OF PACEMAKER-LIKE CELLS FROM CARDIOMYOCYTES” (WASHINGTON UNIVERSITY, priority 2015, published 2018).

Experiments:
Assay type in all cases: cell-based
[1] = tested on: Donor left ventricular slices; assay: Optical mapping of acute drug response in donor human left ventricular slices; conditions: donor left ventricular slices paced at 1 Hz; β-adrenergic stimulation with isoproterenol (100 nM); ±S.D.; baseline 0.67±0.03
Method: After arrival, an approximately one-inch cube of left ventricular tissue or right atrial tissue was cut in cardioplegic solution. Left ventricular tissue was taken from a region close to left anterior descending artery and circumflex artery. Atrial tissue was taken from crista terminalis below sinoatrial node region. Premade 4% agarose gel cooled at 4° C. was glued on to the tissue holder of a high precision vibrating microtome (7000 smz-2, Campden Instruments Ltd. UK). The tissue block was then mounted endocardium up on the agarose. […] Slices were cut tangential to the endocardium. […]
(§1) Ventricular slices were electrophysiologically studied with optical mapping technique. […] Transmembrane potential (Vm) was measured using di4-ANEEPS and RH237 (Life Technologies). Intracellular calcium was measured using Rhod-2AM (Life Technologies). […]
(§2) Activation map was plotted via calculating activation time points at 50% of action potential upstroke amplitude. Action potential and calcium transient duration was calculated at 80% repolarization/relaxation. When slices were field-paced, conduction velocity could not be quantified via traditional longitudinal and transverse direction. During point pacing conduction velocity was calculated using a semi-automated Matlab function ORCA. Effective refractory period was measured using S1-S1 pacing protocol until 1:1 capture was lost. […]

[2] = tested on: failing slices (left ventricular free wall of failing hearts); assay: Optical mapping of acute drug response in failing human heart slices; conditions: isoproterenol, baseline 0.47±0.008
Method: Adult human hearts were procured either as failing human hearts from Barnes-Jewish Hospital or donor human hearts from Mid-America transplant services. Explanted hearts were cardioplegically arrested via high potassium solution (in mmol/L: NaCl 110, CaCl2 1.2, KCl 16, MgCl2 16, NaHCO3 10) and were cooled to approximately 4° C. in the operating room following aortic cross-clamp. Failing hearts were perfused through both coronaries, while donor hearts were perfused systemically prior to removal from body. The heart was maintained at this low temperature to preserve tissue during the 15-20 minute transportation time from the operating room to the research laboratory.
as §1
as §2, with “ORCA.” for “ORCA. Effective refractory period was measured using S1-S1 pacing protocol until 1:1 capture was lost.”

[3] = tested on: human ventricular slices (α1-adrenergic receptor stimulation); assay: Chronic drug model: acute versus chronic phenylephrine in cultured human ventricular slices, optical mapping; conditions: for effect on AP duration (APD): 1 Hz (60 BPM) pacing
Method: Non-failing donor hearts that were rejected for transplantation were cardioplegically arrested and cooled in the operating room following the same procedure accepted for heart transplantation. Cardiac tissue that was promptly delivered to the research laboratory, where it was sliced tangential to the endocardium using a high precision (1 μm) vibrating microtome, transferred to a custom-designed incubation apparatus, and cultured at a liquid-air interface in 6-well culture plates using Transwell inserts. Slices were cultured in M-199 supplemented with 1×ITS (Insulin, Transferrin, Selenium), 10 mM 2,3-butanedione monoxime, and 2% penicillin-streptomycin in a 37° C. incubator with humidified air with 5% CO2. Culture medium was changed daily. Vital tissue slices from adult myocardium prepared in this manner have previously been cultured for up to 28 days with high cellular viability and maintenance of expression of the major ion channels and action potential characteristics.
Slices were cultured in medium 199 supplemented with 2% penicillin-streptomycin, 1×ITS (Insulin, Transferrin, Selenium) liquid media supplement, and 10 mM 2,3-butanedione monoxime. Slices were individually washed in sterile PBS solution 6 times before placing in culture. Sterile forceps were used to handle slices at all time. […]
After a 24 hour culture period, slices' electrophysiology was measured with optical mapping to examine potential functional changes occurred during culture. […]
Utilizing cultured slices and adult dosage of phenylephrine, a widely used selective α1-adrenergic receptor agonist, a model to study chronic drug effects in human cardiac slices was developed. Slice electrophysiology was first acutely measured using optical mapping after application of 3 μM phenylephrine. […]
Slices were cultured in a tissue incubator for 24 hours. Control cultured slices were measured before and after phenylephrine application similar to acute slices, slices cultured in drug media were measured separately. […] Only transverse conduction velocity could be measured accurately due to the small size of the tissue.
Activation map was plotted via calculating activation time points at 50% of action potential upstroke amplitude. Action potential and calcium transient duration was calculated at 80% repolarization/relaxation. When slices were field-paced, conduction velocity could not be quantified via traditional longitudinal and transverse direction. During point pacing conduction velocity was calculated using a semi-automated Matlab function ORCA. Effective refractory period was measured using S1-S1 pacing protocol until 1:1 capture was lost. Action potential and calcium transient were recorded at cycle lengths from 2000 ms to 200 ms.

Compound: CC(C)NCC(O)c1ccc(O)c(O)c1 (stereo not drawn) [isoproterenol]
- conduction velocity (CV) [1]: 0.84±0.03 m/s
- conduction velocity (CV) [2]: 0.54±0.006 m/s

Compound: CNC[C@H](O)c1cccc(O)c1 [phenylephrine]
- effect on AP restitution curve ([3]; acute (15 minutes) 3 μM, at baseline as well as after one day in culture): shifted the AP restitution curve upwards significantly
- effect on AP duration (APD) ([3]; acute treatment at baseline and after one day in culture): APD lengthening
- effect on AP restitution curve ([3]; chronic (24 hours) 3 μM): shifted the AP restitution curve downwards
- effect on AP duration (APD) ([3]; chronic treatment (24 hours)): APD shortening
